Reference: patent publication US6610883B1, “Compounds having selective activity for retinoid X receptors, and means for modulation of processes mediated by retinoid X receptors” (Ligand Pharmaceuticals, Inc., priority 1992, dated 2003)
Each block holds one compound with its values, some of them ahead of it.

Tests used:
[1] = test system: RXR subfamily (RXRα, RXRβ, RXRγ)
Text: (§1) The co-transfection assay provides a mechanism to evaluate the ability of a compound to modulate the transcription response initiated by an intracellular receptor. […] Berger, et al., J. Steroid Biochem Molec.
Briefly, the co-transfection assay involves the introduction of two plasmids by transient transfection into a retinoid receptor-negative mammalian cell background. The first plasmid contains a retinoid receptor cDNA and directs constitutive expression of the encoded receptor. The second plasmid contains a cDNA that encodes for a readily quantifiable protein, e.g., firefly luciferase or chloramphenicol acetyl transferase (CAT), under control of a promoter containing a retinoid acid response element, which confers retinoid dependence on the transcription of the reporter. In this co-transfection assay, all retinoid receptors respond to all-trans-retinoic acid in a similar fashion. […]
Accordingly, synthetic retinoid compounds of the current invention were evaluated for their interaction with retinoid receptor subtypes using the co-transfection assay in which CV-1 cells were co-transfected with one of the retinoid receptor subtypes, a reporter construct, and an internal control to allow normalization of the response for transfection efficiency. […]

[2] = test system: RAR subfamily (RARα, RARβ, RARγ); experiment: Co-transfection assay, dose response profiles, RAR subfamily; format: cell-based; details: in words
Text: as §1
(§2) Briefly, the co-transfection assay involves the introduction of two plasmids by transient transfection into a retinoid receptor-negative mammalian cell background. The first plasmid contains a retinoid receptor cDNA and directs constitutive expression of the encoded receptor. The second plasmid contains a cDNA that encodes for a readily quantifiable protein, e.g., firefly luciferase or chloramphenicol acetyl transferase (CAT), under control of a promoter containing a retinoid acid response element, which confers retinoid dependence on the transcription of the reporter. In this co-transfection assay, all retinoid receptors respond to all-trans-retinoic acid in a similar fashion. This assay can be used to accurately measure efficacy and potency of retinoic acid and synthetic retinoids as ligands that interact with the individual retinoid receptor subtypes.
(§3) Accordingly, synthetic retinoid compounds of the current invention were evaluated for their interaction with retinoid receptor subtypes using the co-transfection assay in which CV-1 cells were co-transfected with one of the retinoid receptor subtypes, a reporter construct, and an internal control to allow normalization of the response for transfection efficiency. The following example is illustrative.
Co-transfection Assay In CV-1 Cells: A monkey kidney cell line, CV-1, was used in the cis-trans assay. Cells were transfected with two plasmids. […] The cis-vector contains an easily assayable gene product, in this case the firefly luciferase, coupled to a retinoid-responsive promoter, i.e., an RARE or RXRE. Addition of retinoic acid or an appropriate synthetic retinoid results in the formation of a retinoid-RAR or -RXR complex that activates the expression of luciferase gene, causing light to be emitted from cell extracts. […]

[3] = target: T1, RXRβ (Mus musculus, UniProt P28704); experiment: Co-transfection (cis-trans) assay in CV-1 cells, RXRβ; format: cell-based; details: RXRβ; maximal response relative to all-trans-retinoic acid at 10^−5 M
T1 construct: expressed in transfected cells; host or cells: CV-1 (monkey kidney)
T1 sequence (P28704 1-520): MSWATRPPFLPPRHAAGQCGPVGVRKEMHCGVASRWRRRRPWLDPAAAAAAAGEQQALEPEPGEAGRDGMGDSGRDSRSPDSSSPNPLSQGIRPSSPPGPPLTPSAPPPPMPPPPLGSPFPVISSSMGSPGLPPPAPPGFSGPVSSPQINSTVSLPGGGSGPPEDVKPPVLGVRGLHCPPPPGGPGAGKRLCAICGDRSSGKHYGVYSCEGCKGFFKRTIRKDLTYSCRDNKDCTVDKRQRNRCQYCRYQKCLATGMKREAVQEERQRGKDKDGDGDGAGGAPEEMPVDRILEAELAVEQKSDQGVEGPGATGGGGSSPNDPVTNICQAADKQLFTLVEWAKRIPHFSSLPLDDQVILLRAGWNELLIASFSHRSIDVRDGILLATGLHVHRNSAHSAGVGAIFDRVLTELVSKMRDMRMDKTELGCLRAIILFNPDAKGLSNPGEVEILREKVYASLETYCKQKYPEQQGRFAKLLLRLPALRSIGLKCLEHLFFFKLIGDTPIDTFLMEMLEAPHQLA
Text: as §1, §2, §3
Retinoids: All-tans-retinoic acid (RA) and 13-cis-retinoic acid (13-cis-RA) were obtained from Sigma. […] Retinoids were dissolved in dimethylsulfoxide for use in the transcriptional activation assays.
Co-transfection Assay In CV-1 Cells: A monkey kidney cell line, CV-1, was used in the cis-trans assay. Cells were transfected with two plasmids. […] The cis-vector contains an easily assayable gene product, in this case the firefly luciferase, coupled to a retinoid-responsive promoter, i.e., an RARE or RXRE. Addition of retinoic acid or an appropriate synthetic retinoid results in the formation of a retinoid-RAR or -RXR complex that activates the expression of luciferase gene, causing light to be emitted from cell extracts. The level of luciferase activity is directly proportional to the effectiveness of the retinoid-receptor complex in activating gene expression. This sensitive and reproducible co-transfection approach permits the identification of retinoids that interact with the different receptor isoforms.
Cells were cultured in DMEM supplemented with 10% charcoal resin-stripped fetal bovine serum, and experiments were conducted in 96-well plates. […] Cells were transfected for 6 h and then washed to remove the precipitate. The cells were then incubated for 36 h with or without retinoid. After the transfection, all subsequent steps were performed on a Beckman Biomek Automated Workstation. […] All determinations were performed in triplicate in two independent experiments and were normalized for transfection efficiency by using β-galactosidase as the internal control. […] Efficacy values less than 5% are not statistically different than the 0% background.

[4] = test system: skin of Rhino mice; experiment: Skin irritation in Rhino mice; format: in vivo; details: compared with 9-cis- or all-trans-retinoic acid
[5] = test system: RAR; experiment: apoA1 "A" site reporter co-transfection in HepG-2 cells, RAR
[6] = test system: RXR; experiment: apoA1 "A" site reporter co-transfection in HepG-2 cells, RXR; format: cell-based
[7] = test system: Rhino mice utriculi; experiment: Comedolytic test on Rhino mice; details: 0.1% solution, topical
[8] = test system: RXRα/PPAR; experiment: Co-transfection of RXRα and PPAR in HepG2 cells; format: cell-based
Text: Specifically, peroxisome proliferator-activated receptor (PPAR) is a member of the intracellular receptor super family that plays a role in the modulation of lipid homeostasis. […] These agents, called peroxisome proliferators, have been used in man as hypolipidemic agents.

melting point: 173 °C
Compound: C=C(c1ccc2c(c1)C(C)(C)CCC2(C)C)c1ccc(C(=O)O)cn1 [Compound 56, 2-[1-(5,5,8,8-tetramethyl-5,6,7,8-tetrahydro-2-naphthyl)ethenyl]pyridine-5-carboxylic acid]

Compound: CC1=C(/C=C/C(C)=C\C=C\C(C)=C\C(=O)O)C(C)(C)CCC1 [9-cis-retinoic acid]
Activation of members of the RXR subfamily [1]: activate members of both the RAR and RXR subfamilies
Activation of members of the RAR subfamily [2]: activate members of both the RAR and RXR subfamilies
Efficacy [3]: 140%

Compound: Cc1cc2c(cc1C(=O)c1ccc(C(=O)O)cc1)C(C)(C)CCC2(C)C [3-methyl-TTNCB, 4-[(3,5,5,8,8-pentamethyl-5,6,7,8-tetrahydro-2-naphthyl)carbonyl]benzoic acid]
Skin irritation [4]: less irritating to the skin of Rhino mice than 9-cis- or all-trans-retinoic acid
Reporter activation via apoA1 "A" site with RAR [5]: no effect when RAR was used in the transfection
Activation of members of the RAR subfamily [2]: no significant activity for members of the RAR subfamily
Reporter activation via apoA1 "A" site with RXR [6]: activation in the system
Inhibition of the utriculi diameter [7]: approximately 50%

Compound: CC(C)(Oc1ccc(Cl)cc1)C(=O)O [clofibric Acid, clofibric acid, reference compound]
Normalized Response (%) [8]: 100%
